These results are taken from US12455279B2, “Personalized immunotherapy for rejuvenating activating and strengthening exhausted and dysfunctional T cells, reducing PD-1, and improving immune function” (priority 2018, dated 2025).

Holding throughout (assay type): cell-based
Test [1] relates to PD-1 expressing large proliferating CD3+ normal human T cells. The test can be described thus: PD-1 expression on large proliferating T cells (FSC/SSC gating), 1 Hr treatment. To be noted: concentration not given; for % reduction in % of large T cells expressing PD-1: vs untreated. Here is the method: (§1) Peripheral blood lymphocytes (PBLs) were separated from normal human leukocytes of healthy donors by Ficol separation and CD3 positive T cells were separated by anti-CD3 antibody-coupled magnetic beads. The CD3+ T cells were cultured in RPMI 1640 medium supplemented with 10% heat inactivated fetal calf serum (FCS), 1% L-Glutamine, 1% sodium pyruvate, 1% non-essential amino acids, and 1% antibiotics. The cells were usually maintained for, for on average 24 hours after their separation before various molecules were added and their effects on the T cells were measured. […] It was therefore tested if neurotransmitters, neuropeptides, and/or modulators of voltage-gated ion channels can reduce PD-1 on the cell surface of T cells. Such a reduction would allow the T cells to escape the tumor-induced T cell suppression, and the activated T cells could then attach the cancer cells. As such, the expression of PD-1 on the surface of these treated and untreated T cells was monitored. […] Shorter in vitro incubation times are frequently preferable when cells are going to subsequently be returned to a subject, as they end to decrease the risk of an adverse reaction.
(§2) CD3 positive T cells of patients are a heterogenous mix of different types of T cells. […] Using this FCS and SSC analysis, T cells can be distinguished and separated by size into large proliferating T cells and smaller non-proliferating T cells.

The subject of test [2] is PD-1 expressing smaller non-proliferating CD3+ normal human T cells. Description: PD-1 expression on smaller non-proliferating T cells (FSC/SSC gating), 1 Hr treatment. Conditions: concentration not given; for % reduction in % of smaller T cells expressing PD-1: vs untreated. Here is the method:
as §1, §2

Test [3] deals with PD-1 expressing CD3+ normal human T cells. The test can be described thus: PD-1 surface expression on CD3+ T cells of healthy donors after treatment (1, 18, 24 Hr). Conditions: for % reduction in % of T cells expressing PD-1: vs untreated. As for the experimental part: as §1

Take `O=C(NCCCCN1CCN(c2cccc(Cl)c2Cl)CC1)c1ccc2c(c1)Cc1ccccc1-2` [NGB 2904]: in test [1], the “% of large T cells expressing PD-1” value turned out to be 22.5% and the “% reduction in % of large T cells expressing PD-1” value was −4.7%. Besides, in test [2], the “% of smaller T cells expressing PD-1” value is on record as 40.2% and the “% reduction in % of smaller T cells expressing PD-1” value is recorded as 8.4%.

As for `CN1CCc2cc(Cl)c(O)cc2[C@H]2c3ccccc3CC[C@@H]21` [SCH 39166], in test [1], the “% of large T cells expressing PD-1” value was 19.8% and the “% reduction in % of large T cells expressing PD-1” value was found to be 7.9%. In addition, in test [2], the “% of smaller T cells expressing PD-1” value is on record as 40.1% and the “% reduction in % of smaller T cells expressing PD-1” value was 8.7%.

Turning to `Oc1ccc(C2CNCCc3c2cc(O)c(O)c3Cl)cc1` (centres unmarked) [Fenoldopam (powder), Fenoldopam], the “% of T cells expressing PD-1” value in test [3] (18 Hr treatment, 10^−7M) stood at 25.75%; in test [3] (24 Hr treatment, 10^−7M), 21.3%; in test [3] (24 Hr treatment, 10^−8M) it was 14.7%. In addition, the “% reduction in % of T cells expressing PD-1” value in test [3] (18 Hr treatment, 10^−7M) is recorded as 25.79%; in test [3] (24 Hr treatment, 10^−7M) it was −4.26%; in test [3] (24 Hr treatment, 10^−8M), 28.05%. Besides, the “effect on PD-1 expressing T cells” value in test [3] (incubated for 24 hours) is given as “did not have a positive effect”.

As to Dendrotoxin K, the “% of T cells expressing PD-1” value in test [3] (1 Hr treatment, 10^−8M) came to 34.6%; in test [3] (18 Hr treatment, 10^−7M), 23.30%; in test [3] (24 Hr treatment, 10^−7M) it was 16.2%; in test [3] (24 Hr treatment, 10^−8M) it was 16.2%. The “% reduction in % of T cells expressing PD-1” value worked out at 25% in test [3] (1 Hr treatment, 10^−8M); 32.85% in test [3] (18 Hr treatment, 10^−7M); 20.69% in test [3] (24 Hr treatment, 10^−7M); 20.69% in test [3] (24 Hr treatment, 10^−8M).

`Cc1onc(O)c1CC(N)C(=O)O` (centres unmarked) [AMPA, alph-amino-3-hydroxy-5-methyl-4-isoxazalepropinoic acid]: in test [3] (1 Hr treatment, 10^−8M), the “% of T cells expressing PD-1” value is listed as 26.4% and the “% reduction in % of T cells expressing PD-1” value was determined as 28%. Besides, in test [3] (18 Hr treatment, 10^−7M), the “% of T cells expressing PD-1” value turned out to be 28.55% and the “% reduction in % of T cells expressing PD-1” value turned out to be 17.72%.

Take `Oc1ccc(C2CNCCc3c2cc(O)c(O)c3Cl)cc1` (centres unmarked) [Fenoldopam - Corlopam, Fenoldopam]: in test [3] (18 Hr treatment, 10^−7M), the “% of T cells expressing PD-1” value stood at 27.87% and the “% reduction in % of T cells expressing PD-1” value amounted to 19.74%.

For `Cc1cccc(NC(=O)CN2CCC(c3ccccn3)CC2)c1` [A412997], in test [3] (1 Hr treatment, 10^−8M), the “% of T cells expressing PD-1” value is listed as 17.4% and the “% reduction in % of T cells expressing PD-1” value is reported as 52%.

For the compound `CN[C@H](CC(=O)O)C(=O)O` [NMDA, N-methyl-D-aspartic acid], in test [3] (1 Hr treatment, 10^−8M), the “% of T cells expressing PD-1” value turned out to be 30.35% and the “% reduction in % of T cells expressing PD-1” value is 17%. In test [3] (18 Hr treatment, 10^−7M), the “% of T cells expressing PD-1” value was 24.75% and the “% reduction in % of T cells expressing PD-1” value worked out at 28.67%.

For `CCCN(CCC)C1CCc2ccc(O)cc2C1` (centres unmarked) [7-OH-DPAT], the “% of T cells expressing PD-1” value in test [3] (1 Hr treatment, 10^−8M) worked out at 21.65%; in test [3] (24 Hr treatment, 10^−7M), 5.12%; in test [3] (24 Hr treatment, 10^−8M), 13.6%. Besides, the “% reduction in % of T cells expressing PD-1” value was determined as 42% in test [3] (1 Hr treatment, 10^−8M); 75.85% in test [3] (24 Hr treatment, 10^−7M); 35.85% in test [3] (24 Hr treatment, 10^−8M).

Consider `Cc1c(C2CCN(CCc3ccccc3)CC2)noc1-c1ccc(Cl)cc1` [L-741,742], for which, in test [1], the “% of large T cells expressing PD-1” value was 19.3% and the “% reduction in % of large T cells expressing PD-1” value was found to be 10.2%. Further, in test [2], the “% of smaller T cells expressing PD-1” value was determined as 37.8% and the “% reduction in % of smaller T cells expressing PD-1” value was found to be 13.9%.

Regarding `OC1(c2ccc(Cl)cc2)CCN(Cc2c[nH]c3ccccc23)CC1` [L-741,626], in test [1], the “% of large T cells expressing PD-1” value is given as 19.0% and the “% reduction in % of large T cells expressing PD-1” value amounted to 11.6%. Also, in test [2], the “% of smaller T cells expressing PD-1” value came out at 38.6% and the “% reduction in % of smaller T cells expressing PD-1” value is 12.1%.

Consider `N#Cc1cc2[nH]c(=O)c(=O)[nH]c2cc1[N+](=O)[O-]` [CNQX], for which, in test [3] (24 Hr treatment, 0.5*10^-6M), the “% of T cells expressing PD-1” value came out at 13.7% and the “% reduction in % of T cells expressing PD-1” value was determined as 32.93%. Further, in test [3] (24 Hr treatment, 0.5*10^−5M), the “% of T cells expressing PD-1” value came out at 12.9% and the “% reduction in % of T cells expressing PD-1” value is on record as 36.84%.
